Structures are written as SMILES. Converted amounts (≈) assume the structure as drawn.

A short description of series [1]: (§1) Cytotoxicity against human TZM-bl cells assessed as reduction in cell viability by CellTiter-Glo 2.0 assay. The series is classed as toxicity, cell-based. The settings on record: TZM-bl cells. A general note: Cellular ATP, detected with luciferase, serves as a proxy for viable cell number.
The subject of series [2] is TZM. Described as §1. The format is toxicity, cell-based. The settings on record: tzm.
Series [3] can be described thus: Aqueous solubility of the compound in PBS at pH 7.4 at 25 degC. The format is physicochemical.
Series [4] concerns TZM. The series can be described thus: Cytotoxicity against human TZM-bl cells assessed as reduction in cell viability at <100 uM by CellTiter-Glo 2.0 assay. The format is toxicity, cell-based.

`CC1(C)CC(NC(=O)C(=O)Nc2ccc(Cl)cc2)CC(C)(C)N1`: the CC50 – broadly, the concentration that lowers cell viability or growth by half – in series [1] is 177 µM.
Still for that read-out and setting: under `CC1(C)CC(NC(=O)C(=O)Nc2ccc(F)nc2)CC(C)(C)N1` stands over 300 µM.
Consider `N=C(N)NCCCCC(=O)NCCN1CCC(NC(=O)C(=O)Nc2ccc(Cl)cc2)CC12CCCCC2.O=C(O)C(F)(F)F.O=C(O)C(F)(F)F` (configuration not stated), for which the CC50 in series [2] came to 201 µM. Also, the solubility (commonly how much of the substance goes into solution per volume) in series [3] was over 16.4 mM. Besides, in series [4], the Activity result is recorded as “Non-Toxic”.
Taken in the same sequence, the figures for `N=C(N)NCCCCC(=O)NCCN1CCC(NC(=O)C(=O)Nc2ccc(Cl)cc2)CC12CCCCC2` (configuration not stated) were over 100 µM, 0.47 mM (≈ 251 µg/mL) and “Non-Toxic”.
As to `COCCOCCOCCOCCOCCOCCOCCOCCOCCOCCOCCOCCNC(=O)CCC(=O)N[C@@H](CCCNC(=N)N)C(=O)NCCN1CCC(NC(=O)C(=O)Nc2ccc(Cl)cc2)CC12CCCCC2.O=C(O)C(F)(F)F.O=C(O)C(F)(F)F` (some centres not stated), the CC50 in series [1] is over 300 µM. The compound further showed a solubility in series [3] of over 13 mM. Moreover, the Activity entry in series [4] is listed as “Non-Toxic”.
As to `N=C(N)NCCCCC(=O)NCCN1CCC(NC(=O)C(=O)Nc2cncc(F)c2)CC12CCCCC2.O=C(O)C(F)(F)F.O=C(O)C(F)(F)F.O=C(O)C(F)(F)F` (configuration not stated), the cytotoxic concentration (CC50) in series [1] was over 300 µM. Also, the solubility in series [3] is over 50 mM. In series [4], the Activity result is given as “Non-Toxic”.
Taken in the same sequence, the figures for `N=C(N)NCCCCC(=O)NCCN1CCC(NC(=O)C(=O)Nc2cncc(Cl)c2)CC12CCCCC2.O=C(O)C(F)(F)F.O=C(O)C(F)(F)F.O=C(O)C(F)(F)F` (configuration not stated) were 279 µM, over 50 mM and “Non-Toxic”.
For the compound `N=C(N)NCCCCC(=O)NCCN1CCC(NC(=O)C(=O)Nc2ccc(F)nc2)CC12CCCCC2.O=C(O)C(F)(F)F.O=C(O)C(F)(F)F.O=C(O)C(F)(F)F` (configuration not stated), in series [1], the CC50 is over 100 µM. In addition, the Activity entry in series [4] is reported as “Non-Toxic”.
Taken in the same sequence, the figures for `COCCOCCOCCOCCOCCOCCOCCOCCOCCOCCOCCOCCNC(=O)CCC(=O)N[C@@H](CCCNC(=N)N)C(=O)NCCN1CCC(NC(=O)C(=O)Nc2ccc(F)nc2)CC12CCCCC2.O=C(O)C(F)(F)F.O=C(O)C(F)(F)F.O=C(O)C(F)(F)F` (some centres not stated) were over 100 µM and “Non-Toxic”.
Consider `N=C(N)NCCCCC(=O)NCCN1CCC(NC(=O)CNc2ccc(Cl)cn2)CC1.O=C(O)C(F)(F)F.O=C(O)C(F)(F)F.O=C(O)C(F)(F)F`, for which the 50% cytotoxic concentration (CC50) in series [1] is over 300 µM. Also, the solubility in series [3] was over 50 mM. Also, the Activity result in series [4] was “Non-Toxic”.
For `N=C(N)NCCCCC(=O)NCCN1CCC(NC(=O)C(=O)Nc2ccc(Cl)cn2)CC1.O=C(O)C(F)(F)F.O=C(O)C(F)(F)F.O=C(O)C(F)(F)F` the same measures were over 300 µM, over 50 mM and “Non-Toxic”.

The values are drawn from ChEMBL document CHEMBL5131454, “Exploratory studies on soluble small molecule CD4 mimics as HIV entry inhibitors” (Bioorg Med Chem, 2022).
